Results on 32 compounds are retold here after the supplement of paper PMC6965134.

± gives the standard deviation of the averaged measurements.

A short description of the data set: TIMS collisional cross section (CCS, N2) of the lipid ion; higher = larger ion cross section. Particulars: ionization mode: positive, one isomer drawn.

Take `CC/C=C\C/C=C\C/C=C\C/C=C\C/C=C\CCCC(=O)O[C@H](COC(=O)CCCCCCC/C=C\C/C=C\CCCCC)COP(=O)([O-])OCC[N+](C)(C)C` [PC 18:2@_20:5] (ion (formula + adduct): [C46H78NO8P+H] 1+): the “TIMS collisional cross section” value runs as follows: (sample type: HeLa) 286.6 Å²; (sample type: plasma) 287 Å².

As to `CCCCCCCC/C=C\CCCCCCCCCCCC(=O)OC[C@@H](COC(=O)CCCCCCCCCCCCCCC)OC(=O)CCCCCCCCCCCCCCCC` [TG 16:0_17:0_22:1] (ion (formula + adduct): [C58H110O6+NH4] 1+), the “TIMS collisional cross section” value (sample type: HeLa) is given as 332.9 Å².

Regarding `CCCCC/C=C\C/C=C\C/C=C\C/C=C\CCCCCC(=O)O[C@H](COC(=O)CCCCCCC/C=C\CCCCC)COP(=O)([O-])OCC[N+](C)(C)C` [PC 15:1_22:4] (ion (formula + adduct): [C45H80NO8P+H] 1+), for the setting “sample type: HeLa”, the “TIMS collisional cross section” value was determined as 290.2 Å².

Take `CC/C=C\C/C=C\C/C=C\C/C=C\C/C=C\C/C=C\CCC(=O)O[C@H](COC(=O)CCCCCCCCC/C=C\CCCCCC)COP(=O)([O-])OCC[N+](C)(C)C` [PC 18:1_22:6] (ion (formula + adduct): [C48H82NO8P+H] 1+): under “sample type: Liver”, the “TIMS collisional cross section” value came out at 295.6 Å².

In the case of `CC/C=C\C/C=C\C/C=C\C/C=C\C/C=C\C/C=C\CCC(=O)OC[C@@H](COC(=O)CCCCCCCCCCCCCCC)OC(=O)CCCCCCC/C=C\CCCCCCC` [TG 16:0_17:1_22:6] (ion (formula + adduct): [C58H98O6+NH4] 1+), the “TIMS collisional cross section” value (sample type: HeLa) came to 324.8 Å².

For `CCCCCCCC/C=C\CCCCCCCC(=O)OC[C@H](COC(=O)CCCCCCCCCCCCCCCCCCCCC)OC(=O)CCCCCCCCCCCCCCCCCCC` [TG 18:1_20:0_22:0] (ion (formula + adduct): [C63H120O6+NH4] 1+), the “TIMS collisional cross section” value runs as follows: (sample type: HeLa) 346.3 Å²; (sample type: plasma) 347.4 Å².

As to `CC/C=C\C/C=C\C/C=C\C/C=C\C/C=C\CCCC(=O)O[C@H](COC(=O)CCCCCCCCCCCCCC)COP(=O)([O-])OCC[N+](C)(C)C` [PC 15:0@_20:5] (ion (formula + adduct): [C43H76NO8P+H] 1+), under “sample type: HeLa”, the “TIMS collisional cross section” value turned out to be 282.3 Å².

Regarding `CC/C=C\C/C=C\C/C=C\C/C=C\C/C=C\CCCC(=O)O[C@H](COC(=O)CCCCCCC/C=C\C/C=C\CCCCC)COP(=O)(O)OCCN` [PE 18:2@_20:5] (ion (formula + adduct): [C43H72NO8P+H] 1+), under “sample type: Liver”, the “TIMS collisional cross section” value was found to be 277.2 Å².

Turning to `CCCC/C=C\CCCCCCCC(=O)OC[C@H](COC(=O)CCCCCCC/C=C\CCCCCCCC)OC(=O)CCCCCCC/C=C\CCCCCC` [TG 14:1_16:1_18:1] (ion (formula + adduct): [C51H92O6+NH4] 1+), the “TIMS collisional cross section” value is, setting by setting: (sample type: HeLa) 307.85 ± 1.2 Å²; (sample type: Liver) 307.7 Å²; (sample type: plasma) 307 Å².

As to `CC/C=C\C/C=C\C/C=C\C/C=C\C/C=C\CCCCCC(=O)OC[C@@H](COC(=O)CCCCCCC/C=C\CCCCCC)OC(=O)CCC/C=C\C/C=C\C/C=C\C/C=C\CCCCC` [TG 16:1_20:4_22:5] (ion (formula + adduct): [C61H98O6+NH4] 1+), under “sample type: HeLa”, the “TIMS collisional cross section” value is reported as 328.2 Å².

As to `CC/C=C\C/C=C\C/C=C\C/C=C\C/C=C\C/C=C\CCC(=O)O[C@H](CO)COP(=O)(O)OCCN` [LPE 22:6] (ion (formula + adduct): [C27H44NO7P+H] 1+), the “TIMS collisional cross section” value (sample type: plasma) is 217.7 Å².

Take `CCCCC/C=C\C/C=C\C/C=C\C/C=C\CCCC(=O)OC[C@H](COP(=O)(O)OCCN)OC(=O)CCC/C=C\C/C=C\C/C=C\C/C=C\CCCCC` [PE 20:4_20:4] (ion (formula + adduct): [C45H74NO8P+H] 1+): the “TIMS collisional cross section” value by setting is: (sample type: HeLa) 280.6 Å²; (sample type: Liver) 279.6 Å².

Take `CCCCCCCCCCCCCCCCCCCCCCCC(=O)N[C@@H](COP(=O)([O-])OCC[N+](C)(C)C)[C@H](O)CCCCCCCCCCCCCCC` [SM d18:0_24:0@] (ion (formula + adduct): [C47H97N2O6P+H] 1+): for the setting “sample type: plasma”, the “TIMS collisional cross section” value stood at 309.6 Å².

For `CCCCC/C=C\C/C=C\C/C=C\C/C=C\CCCCCC(=O)O[C@H](COCCCCCCCCCCCCCCCCCC)COP(=O)([O-])OCC[N+](C)(C)C` [PC O- 18:0@_22:4] (ion (formula + adduct): [C48H90NO7P+H] 1+), the “TIMS collisional cross section” value (sample type: HeLa) amounted to 301.9 Å².

On to `CCCCC/C=C\C/C=C\CCCCCCCCCC(=O)O[C@H](COC(=O)CCCCCCC/C=C\CCCCCCCC)COP(=O)(O)OCCN` [PE 18:1@_20:2] (ion (formula + adduct): [C43H80NO8P+H] 1+), for which the “TIMS collisional cross section” value (sample type: Liver) is recorded as 283.3 Å².

As to `CCCCC/C=C\C/C=C\CCCCCCCC(=O)OC[C@@H](COC(=O)CCCCCCCCCCCCCC)OC(=O)CCCCCCC/C=C\CCCCCCCC` [TG 15:0_18:1_18:2] (ion (formula + adduct): [C54H98O6+NH4] 1+), the “TIMS collisional cross section” value (sample type: plasma) came out at 316.6 Å².

Take `CCCCC/C=C\C/C=C\CCCCCCCC(=O)OC[C@@H](COC(=O)CCCCCCCCCCCCCCC)OC(=O)CCCCCCC/C=C\CCCCCCCC` [TG 16:0_18:1_18:2] (ion (formula + adduct): [C55H100O6+NH4] 1+): the “TIMS collisional cross section” value runs as follows: (sample type: Liver) 314.1 Å²; (sample type: plasma) 319.7 Å².

With `CCCCCCCCCCCCCCC(=O)OC[C@@H](COC(=O)CCCCCCCCCCC)OC(=O)CCCCCCCCCCCCC` [TG 12:0_14:0_15:0] (ion (formula + adduct): [C44H84O6+NH4] 1+), the “TIMS collisional cross section” value (sample type: HeLa) amounted to 291.9 Å².

As to `CCCCC/C=C\C/C=C\C/C=C\C/C=C\CCCC(=O)O[C@H](COC(=O)CCCCCCCCCCCCCCCCC)COP(=O)([O-])OCC[N+](C)(C)C` [PC 18:0_20:4] (ion (formula + adduct): [C46H84NO8P+H] 1+), the “TIMS collisional cross section” value (sample type: HeLa) is reported as 296.2 Å² and the “TIMS collisional cross section” value (sample type: Liver) was determined as 295.6 Å².

Turning to `CCCCCCCC/C=C\CCCCCCCC(=O)OC[C@@H](COC(=O)CCCCCCCCCCC)OC(=O)CCCCCCCCCCCCCCC` [TG 12:0_16:0_18:1] (ion (formula + adduct): [C49H92O6+NH4] 1+), where the note is “sample type: HeLa”, the “TIMS collisional cross section” value amounted to 305.7 Å².

As for `CCCCCCC/C=C\CCCCCCCC(=O)O[C@H](COCCCCCCCCCCCCCCCC)COP(=O)([O-])OCC[N+](C)(C)C` [PC O- 16:0@_17:1] (ion (formula + adduct): [C41H82NO7P+H] 1+), the “TIMS collisional cross section” value (sample type: HeLa) stood at 287.7 Å².

For `CCCCCCCCCCCCCCCCCCOC[C@H](COP(=O)([O-])OCC[N+](C)(C)C)OC(=O)CCCCCCCCCCCCCCC` [PC O- 18:0@_16:0] (ion (formula + adduct): [C42H86NO7P+H] 1+), the “TIMS collisional cross section” value (sample type: HeLa) stood at 293.3 Å².

Consider `CCCCCC/C=C\CCCCCCCC(=O)O[C@@H](COC(=O)CCCCCCC/C=C\CCCCCCC)COC(=O)CCCCCCCCCCCCC` [TG 14:0_16:1_17:1] (ion (formula + adduct): [C50H92O6+NH4] 1+), for which the “TIMS collisional cross section” value (sample type: HeLa) was found to be 307.1 Å² and the “TIMS collisional cross section” value (sample type: plasma) is 307.3 Å².

`CCCCC/C=C\C/C=C\C/C=C\CCCCC(=O)OC[C@H](COP(=O)([O-])OCC[N+](C)(C)C)OC(=O)CCCCCCC/C=C\CCCCCCCCC` [PC 18:3@_19:1] (ion (formula + adduct): [C45H82NO8P+H] 1+): the “TIMS collisional cross section” value (sample type: plasma) is reported as 295 Å².

In the case of `CCCCCCCC/C=C\CCCCCCCC(=O)N[C@@H](COP(=O)([O-])OCC[N+](C)(C)C)[C@H](O)/C=C/CCCCCCCCCCCCC` [SM d18:1@_18:1@] (ion (formula + adduct): [C41H81N2O6P+H] 1+), the “TIMS collisional cross section” value (sample type: plasma) was determined as 287.5 Å².

With `CCCCC/C=C\C=C/CCCCCCCCC(=O)O[C@H](COC(=O)CCCCCCCCCCCCCCCCC)COP(=O)([O-])OCC[N+](C)(C)C` [PC 18:0_18:2] (ion (formula + adduct): [C44H84NO8P+H] 1+), the “TIMS collisional cross section” value was 292.8 Å² (sample type: Liver) and 291.1 Å² (sample type: plasma).

In the case of `CCCCCCCCCCCCCCCC(=O)OCC(CO)OC(=O)CCCCCCCCCCCCCCC` (stereo unspecified) [DG 16:0_16:0_0:0] (ion (formula + adduct): [C35H68O5+NH4] 1+), the “TIMS collisional cross section” value came out at 259 Å² (sample type: HeLa), 258.8 Å² (sample type: Liver) and 259 ± 0.42 Å² (sample type: plasma).

Regarding `CCCCCC/C=C\CCCCCCCC(=O)OC[C@@H](COC(=O)CCCCCCCCCCCCC)OC(=O)CCCCCCCCCCCCCCC` [TG 14:0_16:0_16:1] (ion (formula + adduct): [C49H92O6+NH4] 1+), the “TIMS collisional cross section” value (sample type: HeLa) came to 306.03 ± 0.35 Å², the “TIMS collisional cross section” value (sample type: Liver) is listed as 306.1 Å² and the “TIMS collisional cross section” value (sample type: plasma) was determined as 306 ± 0.3 Å².

Regarding `CC/C=C\C/C=C\C/C=C\CCCCCCCC(=O)OC[C@@H](COC(=O)CCCCCCC/C=C\CCCCCC)OC(=O)CCCCCCC/C=C\C/C=C\CCCCC` [TG 16:1_18:2_18:3] (ion (formula + adduct): [C55H94O6+NH4] 1+), the “TIMS collisional cross section” value is listed as 312.8 Å² (sample type: Liver) and 314.1 Å² (sample type: plasma).

`CCCCCCCC/C=C\CCCCCCCC(=O)OC[C@H](COC(=O)CCCCCCCCCCCCCCCCCCCC)OC(=O)CCCCCCC/C=C\CCCCCCCC` [TG 18:1_18:1_21:0] (ion (formula + adduct): [C60H112O6+NH4] 1+): the “TIMS collisional cross section” value (sample type: plasma) amounted to 336.2 Å².

For `CCCCC/C=C\C/C=C\C/C=C\C/C=C\CCCC(=O)O[C@H](COC(=O)CCCCCCCCCCCCCCCC)COP(=O)([O-])OCC[N+](C)(C)C` [PC 17:0@_20:4] (ion (formula + adduct): [C45H82NO8P+H] 1+), the “TIMS collisional cross section” value (sample type: plasma) is 292.4 Å².

Regarding `C[C@H](CO)CC[C@H](O)[C@@H](C)[C@H]1CC[C@H]2[C@@H]3CC=C4C[C@@H](O)CC[C@]4(C)[C@H]3CC[C@]12C` [Dormatinol] (ion (formula + adduct): [C27H46O3+H] 1+), the “TIMS collisional cross section” value (sample type: plasma) is given as 210.9 Å².
